Data as given in paper PMC4322365, “A Ligand-observed Mass Spectrometry Approach Integrated into the Fragment Based Lead Discovery Pipeline” (Scientific Reports, 2015).
“And” between values parts separate entries of the source, which are not always exact repeats. Identical values can stand only once.

Assays:
HCV RNA polymerase NS5B [1] = biological target: T1, HCV RNA polymerase NS5B (Hepatitis C virus genotype 1b, UniProt P26663); assay: Ligand-observed MS primary screen of the 384-fragment mixture (ultrafiltration LC/MS); assay type: binding; conditions: for S/N in the 1st screen: 384 fragments each 25 μM, NS5B 50 μM, two experimental replicates separated by a slash, S/N > 10 indicates positive hit
T1 construct: NS5B with a C-terminal 10-His tag was expressed in E. coli; 10-His (C); made in house; host or cells: E. coli
Protocol: A two-stage fragment screening strategy based on the ligand-observed MS analysis was devised that involved a primary screen of 384 fragment as a whole followed by a secondary independent screen of fragment cocktails of less complexity. In the primary screen, a mixture of all 384 fragments was incubated with NS5B protein before the fragment-bound complexes were separated from excessive free fragments using ultrafiltration. […] Fragments dissociated from the target using 90% methanol in deionized water were subjected to LC-MS analysis and those showing MS intensity substantially higher than the negative control (protein-free incubation) were considered positive hits (Figure 1A). Although in our previous assay development we justified an S/N ratio of 2 to be the threshold for positive binding, here we raised the S/N threshold to 10 so as to retain the upmost strong binders given that low-affinity fragments are more inclined to nonspecific adsorption. Impressively, the high selectivity of high-resolution MS (HRMS) analysis enabled rapid screening of the 384-fragment mixture within 20-min analytical time, generating 20 preliminary hits with S/N above 10 (Figure 1B, full data sets in Table S1). It is noted that 20 compounds (5%) in this library are not amenable to our analysis, probably due to the limited sensitivity of the mass spectrometer used in this study or the intrinsically low ionization efficiency of these compounds. Nevertheless, these undetectable fragments were still included in the screening cocktail to maximize the complexity of multiple ligand interactions during incubation. To the best of our knowledge, such a high capacity in mixture screening has never been shown before for fragment libraries, and we anticipate the throughput can be easily boosted to screening >1000 fragments within half an hour using a state-of-the-art mass spectrometer.
(§1) In the primary screening, a mixture of 384 fragments (each at a final concentration of 25 μM) and NS5B at 50 μM was prepared in the binding buffer of 20 mM MES (pH 6.5), 300 mM NaCl and 10% glycerol, and incubated for 40 min at 25°C. All fragments of the library were either purchased from Sigma or synthesized in our laboratory, and their structural diversity was summarized in Figure S4. The mixture was then filtered through an ultrafiltration membrane (50 KD MW cut-off) by centrifugation at 13000 g for 10 min at […]. The protein complexes bound with different fragments were washed twice with 10 mM ammonium acetate (pH 6.5) followed by centrifugation to remove the unbound fragments. The resulting solution of the complexes was transferred to a new centrifugal tube, and the ligands were dissociated from NS5B with 90% methanol in deionized water. The released ligands were then separated from the denatured protein by centrifugation at 13000 g for 10 min at 20°C. The supernatant containing the ligands was evaporated by a speed vacuum, reconstituted in 80% methanol, and analyzed by LC/MS. The protein-free control was prepared by using the binding buffer substitute for NS5B during incubation and it underwent the same process as the NS5B incubated sample. In the secondary screen, 384 fragments were divided into 7 cocktails, each consisting of 50 fragments except for the seventh cocktail of 84 fragments. Each cocktail was then incubated with NS5B in the binding buffer at the same final concentration as in the primary screen. […] Ultrafiltration and complex dissociation were performed as described earlier to obtain fragment ligands. Samples were all prepared in duplicate and analyzed separately.
Aliquots of reconstituted ultrafiltrates were analyzed on a Waters Synapt G1 high-dfinition mass spectrometer (Milford, MA) equipped with a Waters Acquity UPLC system. UPLC separation was carried out on a Waters Acquity BEH C18 column (2.1 mm × 50 mm, 1.7 μm) at a flow rate of 200 μL/min, with the mobile phases of water/0.1% formic acid (A) and acetonitrile/0.1% formic acid (B). […]

HCV RNA polymerase NS5B [2] = biological target: T1, HCV RNA polymerase NS5B; assay: Ligand-observed MS secondary screen of 7 subdivided fragment cocktails; assay type: binding; conditions: 7 cocktails of 50 or 84 fragments; two replicates separated by a slash; S/N > 10 positive; ND: not detected by MS analysis
Protocol: To reduce possible false-positives from the primary screen, the library was divided to 7 cocktails among which six consist of 50 fragments and the last one of 84 fragments. Individual cocktails were incubated with NS5B protein prior to protein complex isolation and ligand-observed MS analysis, resulting in a total of 12 positive hits after screening the seven cocktails (Figure 1C). […] Thus the confidence in hit identification was enhanced by selecting hits repetitively found from the two screens against cocktails of different diversity. It is noteworthy that the preliminary hits missed in the secondary screen might be due to either nonspecific binding or co-operative binding that only occurred when the entire library was incubated with the target. Apart from the 12 hits, 25 fragments with S/N < 10 from the secondary screen were regarded non-binders and discarded.
as §1
Aliquots of reconstituted ultrafiltrates were analyzed on a Waters Synapt G1 high-dfinition mass spectrometer (Milford, MA) equipped with a Waters Acquity UPLC system. UPLC separation was carried out on a Waters Acquity BEH C18 column (2.1 mm × 50 mm, 1.7 μm) at a flow rate of 200 μL/min, with the mobile phases of water/0.1% formic acid (A) and acetonitrile/0.1% formic acid (B). In the primary screen, the LC gradient was as follows: 0–15 min, 2–50% B; 15–17 min, 50%–90% B; 17–20 min, 90% B. In the secondary screen and the validation assay, the first fraction of gradient (2–50% B) was shortened to 6 min. The regular ESI ion source operated in both positive- and negative-ion modes. Mass spectra were acquired within a mass range from 100 to 800 m/z, with capillary voltage 3.0 kV in the positive mode and 2.6 kV in the negative mode, sample cone voltage 54 V (positive mode) and 45 V (negative mode), extraction cone voltage 4.7 V (positive mode) and 4.0 V (negative mode), desolvation temperature 350°C, source temperature 100°C, and desolvation gas flow 500 L/h. External calibration with a solution of sodium formate achieved mass accuracy within 10 ppm. LC/MS chromatogram extraction and peak area calculation for specific fragments were performed by use of MassLynx software (v4.1, Waters) based on accurate mass measurement of the compound with a tolerance of 0.01 Da. […]

T1 sequence (P26663 2420-3010): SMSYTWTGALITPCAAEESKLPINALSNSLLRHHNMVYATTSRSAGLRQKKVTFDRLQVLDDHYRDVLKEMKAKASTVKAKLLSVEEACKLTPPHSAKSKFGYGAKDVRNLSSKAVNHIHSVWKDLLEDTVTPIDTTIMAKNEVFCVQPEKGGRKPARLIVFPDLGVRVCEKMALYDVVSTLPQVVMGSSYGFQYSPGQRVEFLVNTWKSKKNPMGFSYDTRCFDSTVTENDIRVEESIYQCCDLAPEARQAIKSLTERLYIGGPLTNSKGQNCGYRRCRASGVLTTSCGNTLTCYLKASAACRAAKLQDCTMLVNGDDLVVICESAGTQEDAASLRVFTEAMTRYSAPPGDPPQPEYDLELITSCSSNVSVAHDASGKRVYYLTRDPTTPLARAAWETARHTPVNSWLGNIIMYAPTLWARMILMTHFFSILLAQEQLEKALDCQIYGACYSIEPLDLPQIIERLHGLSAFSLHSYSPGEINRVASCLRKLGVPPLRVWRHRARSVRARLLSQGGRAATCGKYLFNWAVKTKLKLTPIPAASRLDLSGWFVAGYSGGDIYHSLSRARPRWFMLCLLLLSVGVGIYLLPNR

Which results are given for Cn1c(=O)cc(O)c2ccccc21 [Fragment 130]?
S/N in the 1st screen (HCV RNA polymerase NS5B [1]): 93.1 and 102.3; Binding (HCV RNA polymerase NS5B [1]; Figure 1A workflow example): + (Positive fragment binding is indicated by its S/N ratio > 10); S/N (HCV RNA polymerase NS5B [1]; Figure 1A workflow example): 93; S/N in the 2nd screen (HCV RNA polymerase NS5B [2]): 48.4 and 49.4

Which results are given for Cc1nc2ccccc2nc1C [Fragment 339]?
S/N in the 1st screen (HCV RNA polymerase NS5B [1]): 241.4 and 259.8; S/N in the 2nd screen (HCV RNA polymerase NS5B [2]): 66.2 and 62.4

How did the “S/N in the 1st screen” value (HCV RNA polymerase NS5B [1]) turn out when N#CCc1ccc(O)cc1 [Fragment 114] was run?
Its value is 17.9 and 20.9.

What about the “S/N in the 2nd screen” value (HCV RNA polymerase NS5B [2]) of the same molecule?
Its value is 103.0 and 91.0.

Which “S/N in the 1st screen” value (HCV RNA polymerase NS5B [1]) does the source give for O=C(O)c1ccc(C(F)(F)F)cc1 [Fragment 204] here?
The value was 13.4 and 11.6.

What about the “S/N in the 2nd screen” value (HCV RNA polymerase NS5B [2]) of the same molecule?
The value was 22.4 and 19.8.

How did the “S/N in the 1st screen” value (HCV RNA polymerase NS5B [1]) turn out when Oc1ccc(F)c(Cl)c1 [Fragment 85] was run?
Its value is 27.9 and 29.7.

And the “S/N in the 2nd screen” value (HCV RNA polymerase NS5B [2])?
Its value is 79.0 and 86.0.

How did the “S/N in the 1st screen” value (HCV RNA polymerase NS5B [1]) turn out when Cc1cc(N)n(-c2ccccc2)n1 [Fragment 131] was run?
Its value is 45.7 and 39.3.

And the “S/N in the 2nd screen” value (HCV RNA polymerase NS5B [2])?
Its value is 23.1 and 19.4.

For Nc1ccc(C(F)(F)F)cn1 [Fragment 162], which “S/N in the 1st screen” value (HCV RNA polymerase NS5B [1]) is on record?
The value was 2714 and 3280.

And the Binding (HCV RNA polymerase NS5B [1]; Figure 1A workflow example)?
Its Binding is “+ (Positive fragment binding is indicated by its S/N ratio > 10)”.

And the “S/N in the 2nd screen” value (HCV RNA polymerase NS5B [2])?
The value was 19.7 and 17.3.

How did the “S/N in the 1st screen” value (HCV RNA polymerase NS5B [1]) turn out when N#CC(c1ccccc1)N1CCOCC1 (centres unmarked) [Fragment 328] was run?
The value was 124.6 and 138.4.

And the “S/N in the 2nd screen” value (HCV RNA polymerase NS5B [2])?
The value was 17.4 and 16.3.

How did the “S/N in the 1st screen” value (HCV RNA polymerase NS5B [1]) turn out when Cc1ccc2oc(=O)ccc2c1 [Fragment 117] was run?
The value was 55.6 and 46.8.

And the “S/N in the 2nd screen” value (HCV RNA polymerase NS5B [2])?
Its value is 34.3 and 39.6.

What does the source list for Oc1ccc(SC(F)(F)F)cc1 [Fragment 237]?
S/N in the 1st screen (HCV RNA polymerase NS5B [1]): 1027 and 1179; S/N in the 2nd screen (HCV RNA polymerase NS5B [2]): 29.0 and 36.0
